Measured values from patent US20250275967A1, “FREEZE DRIED COMPOSITIONS” (Janssen Sciences Ireland Unlimited Company, priority 2022, published 2025).

Assay: rilpivirine particle size by wet dispersion laser diffraction
Type: physicochemical
Details: rilpivirine nanoparticles used for the aqueous compositions of Example 5
Description: The compositions were freeze dried and reconstituted with water to provide 9 mL of the reconstituted aqueous composition at time t=0, freeze dried and reconstituted with water to provide 9 mL of the reconstituted aqueous composition after being stored under conditions of 25° C./60% RH and 40° C./75% RH for 1 month, and freeze dried and reconstituted with water to provide 9 mL of the reconstituted aqueous composition after being stored under conditions of 25° C./60% RH for 6 months. The rilpivirine particle sizes were measured in both instances following the method below.
The volume-based particle size distribution of the rilpivirine suspensions was determined by means of wet dispersion laser diffraction, using a Malvern Mastersizer 3000 laser diffraction (Malvern Instruments) and Hydro MV wet dispersion module.

Cc1cc(/C=C/C#N)cc(C)c1Nc1ccnc(Nc2ccc(C#N)cc2)n1 [rilpivirine nanoparticles, 4-[[4-[[4-[(1E)-2-cyanoethenyl]-2,6-dimethylphenyl]amino]-2-pyrimidinyl]amino]-benzonitrile]
Dv10: about 96.5 nm | Dv50: about 224 nm | Dv90: about 509 nm
